# Experimental data taken from patent US10214546B2, “Btk inhibitors” (MERCK SHARP & DOHME CORP., priority 2014, dated 2019).
# Where two headings read alike, the source gives them in different places.
# Assays:
# [1] = molecular target: BTK enzyme (recombinant full-length BTK, hBTK) (Homo sapiens (Human), UniProt Q06187); assay: BTK enzymatic activity LANCE TR-FRET assay; type: biochemical; conditions: 50 pM hBTK, 25 μM ATP, 2 μM biotin-A5-peptide; compound range 1 μM to 0.017 nM; read-out: BTK binding IC50
# [2] = system: adenosine uptake into HeLa cells; assay: [3H]Adenosine uptake assay in HeLa cells; type: cell-based
# Summary of the method: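 IC50 came from a 4-parameter fit of counts per second over a ten-point, 1:3 titration (final 10 µM down to […]). Compound was applied 30 min at ambient temperature in HBSS/5% FBS before a 500 nM [3H]adenosine solution was added; uptake ran 60 min, read by Cytostar-T proximity scintillation.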
# [3] = Homo sapiens, HeLa, [3H]adenosine accumulation in HeLa cells; compound range 10 μM to 0.032 nM; read-out: ADU inhibition IC50
# [4] = [3H]adenosine accumulation in HeLa cells; compound range 10 μM to 0.032 nM; read-out: ADU inhibition IC50
# BTK enzyme (recombinant full-length BTK, hBTK), sequence (Q06187 whole entry): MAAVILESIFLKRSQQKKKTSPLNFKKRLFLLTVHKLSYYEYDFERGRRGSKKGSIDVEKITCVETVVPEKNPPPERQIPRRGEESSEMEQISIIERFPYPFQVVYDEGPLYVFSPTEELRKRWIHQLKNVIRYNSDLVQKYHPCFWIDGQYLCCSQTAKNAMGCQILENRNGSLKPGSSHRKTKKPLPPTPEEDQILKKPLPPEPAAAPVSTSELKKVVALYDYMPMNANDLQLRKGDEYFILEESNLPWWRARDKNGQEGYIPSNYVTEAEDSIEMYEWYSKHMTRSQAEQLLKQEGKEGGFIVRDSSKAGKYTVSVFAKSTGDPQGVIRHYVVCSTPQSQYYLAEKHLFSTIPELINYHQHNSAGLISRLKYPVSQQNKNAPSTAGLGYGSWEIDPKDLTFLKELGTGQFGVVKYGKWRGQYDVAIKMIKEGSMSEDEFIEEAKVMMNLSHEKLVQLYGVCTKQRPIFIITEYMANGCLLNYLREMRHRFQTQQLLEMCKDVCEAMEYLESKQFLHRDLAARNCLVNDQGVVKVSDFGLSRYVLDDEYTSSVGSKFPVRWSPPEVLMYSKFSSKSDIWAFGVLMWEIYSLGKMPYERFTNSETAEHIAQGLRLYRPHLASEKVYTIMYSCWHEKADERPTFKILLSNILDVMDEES
IC50 [1],"IC50 [2, 3]","IC50 [2, 4]",Molecule,IC50 ([2]; read-out: ADU inhibition IC50; [3H]adenosine accumulation in HeLa cells; compound range 10 μM to 0.032 nM)
1.9 nM,2220 nM,–,"C[C@@](O)(c1ccc(-c2nc([C@@H]3CC[C@H]4COCC(=O)N4C3)n3ccnc(N)c23)cc1)c1cccc(C(F)(F)F)c1 [Example 157, (7R,9aS)-7-[8-amino-1-(4-{(1R)-1-hydroxy-1-[3-(trifluoromethyl)phenyl]ethyl}phenyl)imidazo [1,5-a]pyrazin-3-yl]hexahydropyrido[2,1-c][1,4)oxazin-4(3H)-one]",–
0.88 nM,3320 nM,–,"C[C@@](O)(c1ccc(-c2nc([C@@H]3CC[C@H]4CCC(=O)N4C3)n3ccnc(N)c23)cc1)c1cccc(OC(F)(F)F)c1 [Example 57, (6R,8aS)-6-[8-amino-1-(4-{(1R)-1-hydroxy-1-[3-(trifluoromethoxy)phenyl]ethyl}phenyl)imidazo [1,5-a]pyrazin-3-yl]hexahydroindolizin-3(2H)-one]",–
324 nM,–,561 nM,"CC(O)(c1cccc(C(F)(F)F)c1)c1ccc(-c2nc([C@@H]3CC[C@H]4CCC(=O)N4C3)n3c(F)cnc(N)c23)c(F)c1 (stereo partly drawn) [Example 183, (6R,8aS)-6-[8-amino-5-fluoro-1-(2-fluoro-4-{1-hydroxy-1-[3-(trifluoromethyl)phenyl]ethyl}phenyl)imidazo [1,5-a]pyrazin-3-yl]hexahydroindolizin-3(2H)-one]",–
15.4 nM,8500 nM,–,"C[C@](O)(c1ccc(-c2nc([C@@H]3CC[C@H]4CCC(=O)N4C3)n3ccnc(N)c23)cc1)c1cccc(N2CCOCC2)c1 [Example 67, (6R,8aS)-6-(8-amino-1-{4-[(1S)-1-hydroxy-1-(3-morpholin-4-ylphenyl)ethyl]phenyl}imidazo[1,5-a]pyrazin-3-yl)hexahydroindolizin-3(2H)-one]",–
169 nM,–,1560 nM,"CC1(C)CC(=O)N2C[C@@H](c3nc(-c4ccc([C@@](C)(O)c5cccc(C(F)(F)F)c5)cc4)c4c(N)nccn34)CC[C@@H]21 [Example 163, (6S,8aR)-6-[8-amino-1-(4-{(1R)-1-hydroxy-1-[3-(trifluoromethyl)phenyl]ethyl}phenyl)imidazo [1,5-a]pyrazin-3-yl]-1,1-dimethylhexahydroindolizin-3(2H)-one]",–
0.17 nM,2080 nM,–,"C[C@@](O)(c1ccc(-c2nc([C@@H]3CC[C@@H]4N(C3)C(=O)CC43CC3)n3ccnc(N)c23)cc1)c1cccc(C(F)F)c1 [Example 189, (6′R,8a′S)-6′-[8-amino-1-(4-{(1R)-1-[3-(difluoromethyl)phenyl]-1-hydroxyethyl}phenyl)imidazo[1,5-a]pyrazin-3-yl]tetrahydro-5′H-spiro[cyclopropane-1,1′-indolizin]-3′(2′H)-one]",–
0.15 nM,1380 nM,–,"CCc1cccc([C@](C)(O)c2ccc(-c3nc([C@@H]4CC[C@H]5CCC(=O)N5C4)n4ccnc(N)c34)cc2)c1 [Example 93, (6R,8aS)-6-(8-amino-1-(4-[(1R)-1-(3-ethylphenyl)-1-hydroxyethyl]phenyl}imidazo[1,5-a]pyrazin-3-yl)hexahydroindolizin-3(2H)-one]",–
93.8 nM,1980 nM,–,"COc1cc([C@@](C)(O)c2cccc(C(F)(F)F)c2)ccc1-c1nc([C@@H]2CC[C@H]3CCC(=O)N3C2)n2ccnc(N)c12 [Example 141, (6R,8aS)-6-[8-amino-1-(4-{(1S)-1-hydroxy-1-[3-(trifluoromethyl)phenyl]ethyl}-2-methoxyphenyl)imidazo [1,5-a]pyrazin-3-yl]hexahydroindolizin-3(2H)-one]",–
4.7 nM,6300 nM,–,"C[C@@](O)(c1ccc(-c2nc([C@@H]3CC[C@H]4CCC(=O)N4C3)n3c(F)cnc(N)c23)cc1)c1cccc(C(F)(F)F)c1 [Example 158, (6R,8aS)-6-[8-amino-5-fluoro-1-(4-{(1R)-1-hydroxy-1-[3-(trifluoromethyl)phenyl]ethyl}phenyl)imidazo [1,5-a]pyrazin-3-yl]hexahydroindolizin-3(2H)-one]",–
1.2 nM,1450 nM,–,"CC(C)(c1cccc([C@](C)(O)c2ccc(-c3nc([C@@H]4CC[C@H]5CCC(=O)N5C4)n4c(Cl)cnc(N)c34)cc2)c1)C(F)(F)F [Example 124, (6R,8aS)-6-[8-amino-5-chloro-1-(4-{(1R)-1-hydroxy-1-[3-(2,2,2-trifluoro-1,1-dimethylethyl)phenyl]ethyl}phenyl)imidazo[1,5-a]pyrazin-3-yl]hexahydroindolizin-3(2H)-one]",–
183 nM,2040 nM,–,"Cc1ccccc1[C@@](C)(O)c1ccc(-c2nc([C@@H]3CC[C@H]4CCC(=O)N4C3)n3ccnc(N)c23)cc1 [Example 47, (6R,8aS)-6-(8-amino-1-{4-[(1S)-1-hydroxy-1-(2-methylphenyl)ethyl]phenyl}imidazo[1,5-a]pyrazin-3-yl)hexahydroindolizin-3(2H)-one]",–
310 nM,–,316 nM,"CC(O)(c1cccc(C(F)(F)F)c1)c1ccc(-c2nc([C@@H]3CC[C@H]4CCC(=O)N4C3)n3c(Cl)cnc(N)c23)c(F)c1 (stereo partly drawn) [Example 190, (6R,8aS)-6-[8-amino-5-chloro-1-(2-fluoro-4-{1-hydroxy-1-[3-(trifluoromethyl)phenyl]ethyl}phenyl)imidazo [1,5-a]pyrazin-3-yl]hexahydroindolizin-3(2H)-one]",–
0.27 nM,2140 nM,–,"CC1(C)CC(=O)N2C[C@@H](c3nc(-c4ccc([C@@](C)(O)c5cccc(C(F)(F)F)c5)cc4)c4c(N)nccn34)CC[C@@H]21 [Example 161, (6S,8aR)-6-[8-amino-1-(4-{(1R)-1-hydroxy-1-[3-(trifluoromethyl)phenyl]ethyl}phenyl)imidazo [1,5-a]pyrazin-3-yl]-1,1-dimethylhexahydroindolizin-3(2H)-one]",–
583 nM,901 nM,–,"C[C@](O)(c1ccc(-c2nc([C@@H]3CC[C@H]4CCC(=O)N4C3)n3ccnc(N)c23)cc1)c1cccc(OC(F)(F)F)c1 [Example 56, (6R,8aS)-6-[8-amino-1-(4-{(1S)-1-hydroxy-1-[3-(trifluoromethoxy)phenyl]ethyl}phenyl)imidazo [1,5-a]pyrazin-3-yl]hexahydroindolizin-3(2H)-one]",–
1000 nM,973 nM,–,"C[C@](O)(c1ccc(-c2nc([C@@H]3CC[C@H]4CCC(=O)N4C3)n3ccnc(N)c23)cc1)c1cncc(C(F)(F)F)c1 [Example 135, (6R,8aS)-6-[8-amino-1-(4-{(1S)-1-hydroxy-1-[5-(trifluoromethyl)pyridin-3-yl]ethyl}phenyl)imidazo [1,5-a]pyrazin-3-yl]hexahydroindolizin-3(2H)-one]",–
85.7 nM,1160 nM,–,"C[C@@](O)(c1ccc(-c2nc([C@H]3CC[C@@H]4COCC(=O)N4C3)n3c(Cl)cnc(N)c23)cc1)c1cccc(C(F)(F)F)c1 [Example 174, (7S,9aR)-7-[8-amino-5-chloro-1-(4-{(1R)-1-hydroxy-1-[3-(trifluoromethyl)phenyl]ethyl}phenyl)imidazo [1,5-a]pyrazin-3-yl]hexahydropyrido[2,1-c][1,4]oxazin-4(3H)-one]",–
0.47 nM,3830 nM,–,"C[C@@](O)(c1ccc(-c2nc([C@@H]3CC[C@H]4CCC(=O)N4C3)n3ccnc(N)c23)cc1)c1cccc(Cl)c1 [Example 52, (6R,8aS)-6-(8-amino-1-{4-[(1R)-1-(3-chlorophenyl)-1-hydroxyethyl]phenyl}imidazo[1,5-a]pyrazin-3-yl)hexahydroindolizin-3(2H)-one]",–
556 nM,7110 nM,–,"C[C@@](O)(c1ccc(-c2nc([C@@H]3CC[C@H]4N(C3)C(=O)CCC4(F)F)n3ccnc(N)c23)cc1)c1cccc(C(F)(F)F)c1 [Example 170, (7R,9aR)-7-[8-amino-1-(4-{(1R)-1-hydroxy-1-[3-(trifluoromethyl)phenyl]ethyl}phenyl)imidazo [1,5-a]pyrazin-3-yl]-1,1-difluorooctahydro-4H-quinolizin-4-one]",–
1000 nM,684 nM,–,"C[C@](O)(c1cccc(C(F)(F)F)c1)c1ccc(-c2nc([C@@H]3CC[C@H]4CCC(=O)N4C3)n3ccnc(N)c23)c(C(F)F)c1 [Example 81, (6R,8aS)-6-{8-amino-1-[2-(difluoromethyl)-4-{(1R)-1-hydroxy-1-[3-(trifluoromethyl)phenyl]ethyl}phenyl]imidazo [1,5-a]pyrazin-3-yl}hexahydroindolizin-3(2H)-one]",–
824 nM,1180 nM,–,"Nc1nccn2c([C@@H]3CC[C@H]4CCC(=O)N4C3)nc(-c3ccc(C(O)c4cc(C(F)(F)F)ccc4F)cc3)c12 (stereo partly drawn) [Example 125, (6R,8aS)-6-(8-amino-1-(4-{[2-fluoro-5-(trifluoromethyl)phenyl] (hydroxy)methyl}phenyl)imidazo[1,5-a]pyrazin-3-yl]hexahydroindolizin-3(2H)-one]",–
170 nM,2360 nM,–,"CC(O)(c1ccc(F)cc1)c1ccc(-c2nc([C@@H]3CC[C@H]4CCC(=O)N4C3)n3ccnc(N)c23)cc1 (stereo partly drawn) [Example 19, (6R,8aS)-6-(8-amino-1-{4-(1-(4-fluorophenyl)-1-hydroxyethyl]phenyl}imidazo[1,5-a]pyrazin-3-yl)hexahydroindolizin-3(2H)-one]",–

Molecule,IC50 [1],"IC50 [2, 3]","IC50 [2, 4]",IC50 ([2]; read-out: ADU inhibition IC50; [3H]adenosine accumulation in HeLa cells; compound range 10 μM to 0.032 nM)
"NC(=O)C(O)(c1ccc(-c2nc([C@@H]3CC[C@H]4CCC(=O)N4C3)n3ccnc(N)c23)cc1)c1cccc(C(F)(F)F)c1 (stereo partly drawn) [Example 97, 2-(4-{8-amino-3-[(6R,8aS)-3-oxooctahydroindolizin-6-yl]imidazo[1,5-a]pyrazin-1-yl}phenyl)-2-hydroxy-2-[3-(trifluoromethyl)phenyl] acetamide]",894 nM,–,–,10000 nM
"(6R.8aS)-6-[8-amino-1- (4-{(1R)-1-[3- (difluoromethyl)phenyl]-1- hydroxyethyl}phenyl)- 5-fluoroimidazo[1,5- a]pyrazin-3-yl]-2,2- dimethylhexahydroindolizin- 3(2H)-one [Example 178]",1.3 nM,–,4610 nM,–
